Test results from PubChem BioAssay AID248 (DTP/NCI, 2004).
Several values for one entry are separate records, joined by “and”; a condition that tells them apart may be missing. Identical values can stand only once. Inconclusive results and toxic doses are left out. Rule as the data show it: active = T/C of 150% or more; inactive = T/C below 125%.

Test system: L1210 leukemia ip in BDF1 mice, survival T/C
Assay: NCI In Vivo Anticancer Drug Screen. Data for tumor model L1210 Leukemia (intraperitoneal) in B6D2F1 (BDF1) mice
Details: endpoint: mean survival time, higher = longer survival
Summary of the method: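 Transplantable tumor model; survival measured in treated vs vehicle control mice. Value = treated/control.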

[1] = dose: 100.0 mg/kg/injection, schedule: Q04DX002 (ip), vehicle: saline with Tween-80
[2] = dose: 200.0 mg/kg/injection, schedule: Q04DX002 (ip), vehicle: saline with Tween-80
[3] = dose: 400.0 mg/kg/injection, schedule: Q04DX002 (ip), vehicle: saline with Tween-80
[4] = dose: 100.0 mg/kg/injection, schedule: Q01DX001 (ip), vehicle: saline
[5] = dose: 200.0 mg/kg/injection, schedule: Q01DX001 (ip), vehicle: saline
[6] = dose: 400.0 mg/kg/injection, schedule: Q01DX001 (ip), vehicle: saline
[7] = dose: 100.0 mg/kg/injection, schedule: Q04DX003 (ip), vehicle: saline with Tween-80
[8] = dose: 100.0 mg/kg/injection, schedule: Q01DX001 (ip), vehicle: other
[9] = dose: 200.0 mg/kg/injection, schedule: Q01DX001 (ip), vehicle: other
[10] = dose: 400.0 mg/kg/injection, schedule: Q01DX001 (ip), vehicle: other
[11] = dose: 100.0 mg/kg/injection, schedule: Q04DX002 (ip), vehicle: saline
[12] = dose: 200.0 mg/kg/injection, schedule: Q04DX002 (ip), vehicle: saline
[13] = dose: 400.0 mg/kg/injection, schedule: Q04DX002 (ip), vehicle: saline

Measured: T/C

C/C(CCC(=O)O)=N/N=C(N)N
inactive: dose: 15.0 mg/kg/injection, schedule: Q01DX Z (ip), vehicle: carboxymethylcellulose (CMC) 100 % of control | dose: 30.0 mg/kg/injection, schedule: Q01DX Z (ip), vehicle: carboxymethylcellulose (CMC) 106 % of control | dose: 60.0 mg/kg/injection, schedule: Q01DX Z (ip), vehicle: carboxymethylcellulose (CMC) 106 % of control | dose: 120.0 mg/kg/injection, schedule: Q01DX Z (ip), vehicle: carboxymethylcellulose (CMC) 95 % of control and 102 % of control | dose: 240.0 mg/kg/injection, schedule: Q01DX Z (ip), vehicle: carboxymethylcellulose (CMC) 108 % of control | dose: 480.0 mg/kg/injection, schedule: Q01DX Z (ip), vehicle: carboxymethylcellulose (CMC) 104 % of control

C=CCN(CCN(CC)CC)C(=O)C(O)(c1ccccc1)c1ccccc1
inactive: [1] 93 % of control | [2] 93 % of control | [3] 95 % of control

CCCCN(CCCC)S(=O)(=O)CCl
inactive: [1] 116 % of control | [2] 108 % of control | [3] 105 % of control

Cc1cc(/C=C/c2ccc(N(CCCl)CCCl)cc2)nc2ccccc12
inactive: [4] 107 % of control | [5] 113 % of control | [6] 103 % of control

NC(=O)c1c(/N=C/c2cc(Br)ccc2O)sc2c1CCCC2
inactive: dose: 25.0 mg/kg/injection, schedule: Q04DX002 (ip), vehicle: saline with Tween-80 87 % of control | dose: 50.0 mg/kg/injection, schedule: Q04DX002 (ip), vehicle: saline with Tween-80 87 % of control | [1] 93 % of control | [3] 87 % of control

CC(=S)N1CCCCC1
inactive: dose: 50.0 mg/kg/injection, schedule: Q01DX001 (ip), vehicle: carboxymethylcellulose (CMC) 100 % of control

Nc1nc(N)c(N=Nc2ccccc2S(=O)(=O)O)c(N)n1
inactive: [4] 105 % of control | [5] 89 % of control | [6] 96 % of control

CN(C)CCN(C)C(=O)C(c1ccccc1)C1CCCCC1 (stereo unspecified)
inactive: dose: 75.0 mg/kg/injection, schedule: Q01DX001 (ip), vehicle: saline 103 % of control | dose: 150.0 mg/kg/injection, schedule: Q01DX001 (ip), vehicle: saline 97 % of control

CCCCCCNC(C)=O
inactive: dose: 12.5 mg/kg/injection, schedule: Q01DX009 (ip), vehicle: saline 92 % of control | dose: 25.0 mg/kg/injection, schedule: Q01DX009 (ip), vehicle: saline 118 % of control | dose: 50.0 mg/kg/injection, schedule: Q01DX009 (ip), vehicle: saline 97 % of control and 90 % of control | dose: 100.0 mg/kg/injection, schedule: Q01DX009 (ip), vehicle: saline 90 % of control | [7] 95 % of control | dose: 200.0 mg/kg/injection, schedule: Q01DX009 (ip), vehicle: saline 97 % of control | dose: 200.0 mg/kg/injection, schedule: Q04DX003 (ip), vehicle: saline with Tween-80 87 % of control

CCOc1ccc(NC(C)=O)cc1Br
inactive: [8] 103 % of control | [9] 103 % of control | [10] 111 % of control

ClCC(Cl)CN1CCCCC1 (stereo unspecified)
inactive: [7] 112 % of control

CCCCCCCCCCCCCCCCCC(=O)OCC(=O)C(OC(=O)CCCCCCCCCCCCCCCCC)C(OC(=O)CCCCCCCCCCCCCCCCC)C(COC(=O)CCCCCCCCCCCCCCCCC)OC(=O)CCCCCCCCCCCCCCCCC (stereo unspecified)
inactive: [8] 95 % of control | [9] 98 % of control | [10] 93 % of control

COc1ccc(OC(=O)Nc2ccc(C)cc2Cl)cc1
inactive: dose: 100.0 mg/kg/injection, schedule: Q01DX009 (ip), vehicle: saline with Tween-80 96 % of control and 104 % of control | [1] 103 % of control and 104 % of control | dose: 200.0 mg/kg/injection, schedule: Q01DX009 (ip), vehicle: saline with Tween-80 97 % of control and 105 % of control | [2] 100 % of control and 107 % of control | dose: 400.0 mg/kg/injection, schedule: Q01DX009 (ip), vehicle: saline with Tween-80 105 % of control and 108 % of control | [3] 96 % of control and 106 % of control

CCSC1C(OC(C)=O)C(C(COC(C)=O)OC(C)=O)OC1n1cc(C)c(=O)[nH]c1=O (stereo unspecified)
inactive: dose: 100.0 mg/kg/injection, schedule: Q01DX005 (ip), vehicle: saline 98 % of control | dose: 200.0 mg/kg/injection, schedule: Q01DX005 (ip), vehicle: saline 100 % of control

CN(C)N=Nc1c[nH]c(=O)[nH]c1=O
inactive: dose: 10.0 mg/kg/injection, schedule: Q01DX001 (ip), vehicle: saline 108 % of control | dose: 20.0 mg/kg/injection, schedule: Q01DX001 (ip), vehicle: saline 120 % of control | dose: 40.0 mg/kg/injection, schedule: Q01DX001 (ip), vehicle: saline 123 % of control

CCNC(=O)OC1C=CS(=O)(=O)C1 (stereo unspecified)
inactive: [11] 106 % of control | [12] 92 % of control | [13] 106 % of control

COc1ccc(-c2csc(-c3ccccc3)n2)cc1N=Cc1ccc(N(CCCl)CCCl)c(OC)c1
active: dose: 10.0 mg/kg/injection, schedule: Q01DX009 (ip), vehicle: acetone 154 % of control | dose: 20.0 mg/kg/injection, schedule: Q01DX009 (ip), vehicle: acetone 166 % of control | dose: 20.0 mg/kg/injection, schedule: Q01DX015 (ip), vehicle: carboxymethylcellulose (CMC) 153 % of control
inactive: dose: 0.96 mg/kg/injection, schedule: Q01DX009 (ip), vehicle: acetone 106 % of control | dose: 1.4 mg/kg/injection, schedule: Q01DX009 (ip), vehicle: acetone 103 % of control | dose: 5.0 mg/kg/injection, schedule: Q01DX015 (ip), vehicle: carboxymethylcellulose (CMC) 120 % of control | dose: 8.0 mg/kg/injection, schedule: Q01DX015 (ip), vehicle: carboxymethylcellulose (CMC) 113 % of control | dose: 40.0 mg/kg/injection, schedule: Q01DX009 (ip), vehicle: acetone 102 % of control | dose: 66.0 mg/kg/injection, schedule: Q01DX015 (ip), vehicle: carboxymethylcellulose (CMC) 101 % of control | dose: 100.0 mg/kg/injection, schedule: Q01DX015 (ip), vehicle: carboxymethylcellulose (CMC) 104 % of control

O=C1c2ccccc2C(=O)c2cc(/C=N/Nc3ccc([N+](=O)[O-])cc3[N+](=O)[O-])ccc21
inactive: dose: 100.0 mg/kg/injection, schedule: Q01DX001 (ip), vehicle: Klucel (hydroxypropylcellulose) (HPC) 93 % of control | dose: 200.0 mg/kg/injection, schedule: Q01DX001 (ip), vehicle: Klucel (hydroxypropylcellulose) (HPC) 90 % of control | dose: 400.0 mg/kg/injection, schedule: Q01DX001 (ip), vehicle: Klucel (hydroxypropylcellulose) (HPC) 86 % of control

CC(=O)Oc1ccc2ncccc2c1Cc1c(OC(C)=O)ccc2ncccc12
inactive: dose: 75.0 mg/kg/injection, schedule: Q04DX003 (ip), vehicle: saline 91 % of control | dose: 150.0 mg/kg/injection, schedule: Q04DX003 (ip), vehicle: saline 95 % of control | dose: 300.0 mg/kg/injection, schedule: Q04DX003 (ip), vehicle: saline 95 % of control

O=C(COc1ccc(Cl)cc1Cl)Nc1cc(C(F)(F)F)ccc1Cl
inactive: dose: 50.0 mg/kg/injection, schedule: Q01DX001 (ip), vehicle: other 96 % of control | [8] 107 % of control | dose: 100.0 mg/kg/injection, schedule: Q04DX002 (ip), vehicle: gum acacia 118 % of control | [9] 89 % of control | dose: 200.0 mg/kg/injection, schedule: Q04DX002 (ip), vehicle: gum acacia 91 % of control | [10] 94 % of control | dose: 400.0 mg/kg/injection, schedule: Q04DX002 (ip), vehicle: gum acacia 103 % of control

O=C(O)c1ccc(C2CC2)cc1
inactive: [8] 103 % of control | dose: 100.0 mg/kg/injection, schedule: Q04DX003 (ip), vehicle: other 103 % of control | [9] 108 % of control | dose: 200.0 mg/kg/injection, schedule: Q04DX003 (ip), vehicle: other 111 % of control | [10] 95 % of control | dose: 400.0 mg/kg/injection, schedule: Q04DX003 (ip), vehicle: other 103 % of control

NC(=O)C(N)CO (stereo unspecified)
inactive: [11] 96 % of control | [12] 104 % of control | [13] 111 % of control

O=C1CC2C3Nc4ccccc4C3CCN2C2=C1CC(OC(=O)c1ccccc1)CC2 (stereo unspecified)
inactive: dose: 12.5 mg/kg/injection, schedule: Q01DX009 (ip), vehicle: saline sonified 96 % of control | dose: 25.0 mg/kg/injection, schedule: Q01DX009 (ip), vehicle: saline sonified 98 % of control | dose: 50.0 mg/kg/injection, schedule: Q01DX009 (ip), vehicle: saline sonified 103 % of control | dose: 100.0 mg/kg/injection, schedule: Q04DX003 (ip), vehicle: Klucel (hydroxypropylcellulose) (HPC) 95 % of control

CC(C)CC(NC(=O)OC(C)(C)C)C(=O)NC(Cc1c[nH]c2ccccc12)C(=O)NN (stereo unspecified)
inactive: dose: 100.0 mg/kg/injection, schedule: Q01DX001 (ip), vehicle: carboxymethylcellulose (CMC) 88 % of control | dose: 400.0 mg/kg/injection, schedule: Q01DX001 (ip), vehicle: carboxymethylcellulose (CMC) 94 % of control
